For the first test, the target named is T1, human Nav1.1 (Homo sapiens, UniProt P35498).
T1 construct: host or cells: HEK293
Nature of the test: Amplification of Nav1.1-derived voltage-gated sodium current (Nav1.1 current), automated patch clamp (Test 1). Format: cell-based. As to conditions: Concentration for evaluation 1 μM; HEK293 cell line stably expressing human Nav1.1. Summed up:
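HEK293 cells stably expressing human Nav1.1, restricted to cells with >500 pA current, were recorded by automated voltage-clamp patch clamp with a ramp voltage stimulus. Compounds were applied in HEPES-buffered extracellular solution with 1% DMSO. Amplification (%) = 100×(peak or AUC after/before compound)−100.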
For `CC(=O)N1CC=C(c2nccc3c2CCN3C(=O)Cn2nc(C3=CCC(C)CC3)ccc2=O)C1` (stereo not drawn) [Example 310], the “Nav1.1 current amplification rate (%)” value stood at 87%.

Regarding `CC1CC=C(c2ccc(=O)n(CC(=O)Nc3cnc4c(cnn4C)c3)n2)CC1` (stereo not drawn) [Example 348], the “Nav1.1 current amplification rate (%)” value came out at 57%. Turning to `CC1CC=C(c2ccc(=O)n(CC(=O)N3CCc4c3ccnc4C3=CCOC3)n2)CC1` (stereo not drawn) [Example 284], the “Nav1.1 current amplification rate (%)” value is reported as 91%. The same measure, in the same setting: to `CC1CC=C(c2ccc(=O)n(CC(=O)Nc3ccc4cncnc4c3)n2)CC1` (stereo not drawn) [Example 356] belongs 378%; to `CC1CC(N(C)c2cnc3cnn(CC(=O)Nc4ccn5ncnc5c4)c3n2)C1` (stereo not drawn) [Example 635], 76%. With `CO[C@@H]1CCN(Cc2cccc3c2CCN3C(=O)Cn2nc(C3=CCC(C)CC3)ccc2=O)C1` (stereo partly drawn) [Example 273], the “Nav1.1 current amplification rate (%)” value stood at 77%. For `CN(c1cnc2cnn(CC(=O)N3CCc4c(C#N)cccc43)c2n1)C1CC1` [Example 715], the “Nav1.1 current amplification rate (%)” value is listed as 13%. On the same count and under the same terms, to `CN1CCN(c2cccc3c2CCN3C(=O)Cn2ncc3ncc(N(C)C4CCC4)nc32)CC1` [Example 697] belongs 21%; to `CC1CC=C(c2ccc(=O)n(CC(=O)Nc3ccnc(C#N)c3)n2)CC1` (stereo not drawn) [Example 362], 133%.

For `CN(c1cnc2cnn(CC(=O)Nc3ccc(-n4ccnc4)nc3)c2n1)C1CCCC1` [Example 682], the “Nav1.1 current amplification rate (%)” value is reported as 53%.

With `CC1CC=C(c2ccc(=O)n(CC(=O)Nc3ccn4nncc4c3)n2)CC1` (stereo not drawn) [Example 342], the “Nav1.1 current amplification rate (%)” value was found to be 109%. Same read-out and setting: the figure for `CN(c1cnc2cnn(CC(=O)Nc3ccc4cnnn4c3)c2n1)C1CCCC1` [Example 679] is 63%; for `CN(c1cnc2cnn(CC(=O)N3CCc4c(C5CC5)cccc43)c2n1)C1CC1` [Example 730] it is 133%; for `CN(c1cnc2cnn(CC(=O)N3CCc4c(-c5ccnnc5)cccc43)c2n1)C1CC1` [Example 699] it is 366%. Still for that read-out and setting: the figure for `CN(c1cnc2cnn(CC(=O)Nc3ccc(C#N)nc3)c2n1)C1CCCC1` [Example 683] is 63%. On the same count and under the same terms, the figure for `CN(c1ncc2cnn(CC(=O)Nc3ccn4ncnc4c3)c2n1)C1CC(C)(C)C1` [Example 632] is 164%.

Still in this test, the particulars now being: Concentration for evaluation 3 μM; HEK293 cell line stably expressing human Nav1.1.
For the molecule `COc1ccc(N2CCN(C(=O)Cn3nc(C4=CCC(C)CC4)ccc3=O)CC2)cn1` (stereo not drawn) [Example 407], the “Nav1.1 current amplification rate (%)” value came to 113%. Still for that read-out and setting: to `CC1CC=C(c2ccc(=O)n(CC(=O)N3CCc4c(OCC(C)(C)O)cccc43)n2)CC1` (stereo not drawn) [Example 307] belongs 320%; to `CN(c1cnc2cnn(CC(=O)N3CCc4cc(C#N)ccc43)c2n1)C1CCC1` [Example 691], 11%. `CC1CC=C(c2ccc(=O)n(CC(=O)N3CCc4c(C5=CCN(C)C5)cccc43)n2)CC1` (stereo not drawn) [Example 267]: the “Nav1.1 current amplification rate (%)” value is 231%.

In the case of `Cc1nc2cc(NC(=O)Cn3nc(C4=CCC(C)CC4)ccc3=O)ccn2c1C` (stereo not drawn) [Example 329], the “Nav1.1 current amplification rate (%)” value was found to be 100%. As to `CC1CC=C(c2ccc(=O)n(CC(=O)N3CCc4c(C5CNC5)cccc43)n2)CC1` (stereo not drawn) [Example 299], the “Nav1.1 current amplification rate (%)” value was 6%. Still for that read-out and setting: to `CC1CC=C(c2ccc(=O)n(CC(=O)N3CCOc4c(-c5cn[nH]c5)cccc43)n2)CC1` (stereo not drawn) [Example 290] belongs 94%. Take `CC1CC=C(c2ccc(=O)n(CC(=O)N3CCc4c(-c5ccnnc5)cccc43)n2)CC1` (stereo not drawn) [Example 253]: the “Nav1.1 current amplification rate (%)” value stood at 455%.

Still in this test, the particulars now being: Concentration for evaluation 10 μM; HEK293 cell line stably expressing human Nav1.1.
For `CC1CC=C(c2ccc(=O)n(CC(=O)N3CCc4c3ccnc4C3=CCNC3)n2)CC1` (stereo not drawn) [Example 281], the “Nav1.1 current amplification rate (%)” value was determined as 40%.

Turning to `N#Cc1ccc(NC(=O)Cn2nc(N3CCC4(CCCO4)CC3)ccc2=O)cc1` [Example 29], the “Nav1.1 current amplification rate (%)” value worked out at 20%. Same read-out and setting: to `COc1cc(C2=CCC(C(F)(F)F)CC2)nn(CC(=O)N2CCN(c3cncc(F)c3)CC2)c1=O` (stereo not drawn) [Example 482] belongs 219%; to `CC1CCN(c2ccc(=O)n(CC(=O)Nc3ccc4sc(N(C)C)nc4c3)n2)CC1` [Example 92], 88%. Still for that read-out and setting: the figure for `CC1CC=C(c2ccc(=O)n(CC(=O)Nc3ccnc(-c4cnn(C)c4)c3)n2)CC1` (stereo not drawn) [Example 379] is 147%. Same read-out and setting: the figure for `N#Cc1ccc(NC(=O)Cn2nc(N3CCCC(C(F)(F)F)C3)ccc2=O)cc1` (stereo not drawn) [Example 16] is 59%; for `CN(c1cnc2cnn(CC(=O)Nc3cccnc3)c2n1)C1CC1` [Example 726] it is 31%. In the case of `CC1(C)CC=C(c2ccc(=O)n(CC(=O)N3CCc4c(OC5COC5)cccc43)n2)CC1` [Example 436], the “Nav1.1 current amplification rate (%)” value is on record as 226%.

`CC1CC=C(c2ccc(=O)n(CC(=O)N3CCN(c4cnn(C)c4)CC3)n2)CC1` (stereo not drawn) [Example 415]: the “Nav1.1 current amplification rate (%)” value came out at 93%.

For `CC1(C)CCCN(c2ccc(=O)n(CC(=O)Nc3ccc(C#N)cc3)n2)C1` [Example 22], the “Nav1.1 current amplification rate (%)” value is reported as 110%. Consider `CCC1(C)CCN(c2ccc(=O)n(CC(=O)Nc3ccc(C#N)cc3)n2)CC1` [Example 28], for which the “Nav1.1 current amplification rate (%)” value came out at 158%.

As to `CC1CC=C(c2ccc(=O)n(CC(=O)N3CCN(c4cccnc4)CC3)n2)CC1` (stereo not drawn) [Example 395], the “Nav1.1 current amplification rate (%)” value amounted to 343%.

On to `CC1CCN(c2ccc(=O)n(CC(=O)Nc3ccc4nccn4c3)n2)CC1` [Example 90], for which the “Nav1.1 current amplification rate (%)” value came out at 31%. Still for that read-out and setting: to `CC1CC=C(c2ccc(=O)n(CC(=O)N3CCC(c4ccccn4)CC3)n2)CC1` (stereo not drawn) [Example 260] belongs 13%. On the same count and under the same terms, the figure for `N#Cc1ccc(NC(=O)Cn2nc(N3CCCC(O)C3)ccc2=O)cc1` (stereo not drawn) [Example 7] is 3%; for `Cc1ccc(-c2ccc(=O)n(CC(=O)N3CCc4cc(N5CCOCC5)ccc43)n2)cc1` [Example 158] it is 122%. Same read-out and setting: the figure for `CN(c1cnc2cnn(CC(=O)Nc3ccc4ncccc4n3)c2n1)C1CC1` [Example 725] is 51%. For the molecule `O=C(Cn1nc(C2=CCC(C(F)(F)F)CC2)ccc1=O)Nc1ccc2ocnc2c1` (racemic) [Example 446], the “Nav1.1 current amplification rate (%)” value was 333%.

The same test, now with this note: Concentration for evaluation 50 μM; HEK293 cell line stably expressing human Nav1.1.
In the case of `CC1CC=C(c2ccc(=O)n(CC(=O)Nc3cncc(CN(C)C)c3)n2)CC1` (stereo not drawn) [Example 365], the “Nav1.1 current amplification rate (%)” value is 32%. Still for that read-out and setting: the figure for `Cc1c(NC(=O)Cn2nc(C3=CCC(C)CC3)ccc2=O)ccc2ncnn12` (stereo not drawn) [Example 353] is 32%. Same read-out and setting: to `CC1CCC(F)(F)CN1c1ncc2cnn(CC(=O)Nc3ccn4ncnc4c3)c2n1` (stereo not drawn) [Example 793] belongs 55%; to `Cc1nc(N2CCN(C(=O)Cn3nc(C4=CCC(C)CC4)ccc3=O)CC2)no1` (stereo not drawn) [Example 406], 68%. Still for that read-out and setting: to `CN(CC(F)F)c1cnc2cnn(CC(=O)Nc3ccn4ncnc4c3)c2n1` [Example 627] belongs 60%; to `CC1CC=C(c2ccc(=O)n(CC(=O)N3CC=C(c4ccccn4)C3)n2)CC1` (stereo not drawn) [Example 385], 42%. `CC1CC=C(c2ccc(=O)n(CC(=O)Nc3ccc4ncccc4c3)n2)CC1` (stereo not drawn) [Example 357]: the “Nav1.1 current amplification rate (%)” value is 43%. The same measure, in the same setting: the figure for `CC(C)N(C)c1cnc2cnn(CC(=O)Nc3ccc4ncnn4c3)c2n1` [Example 665] is 63%; for `CC1CC=C(c2ccc(=O)n(CC(=O)N3CCN(C4CCCOC4)CC3)n2)CC1` (stereo not drawn) [Example 408] it is 80%.

The same test, now with this note: HEK293, Concentration for evaluation 10 μM; HEK293 cell line stably expressing human Nav1.1; read-out: Nav1.1 current amplification rate (%).
For `CN(c1cnc2cnn(CC(=O)NCCc3ccccc3F)c2n1)C1CC2(CC2)C1` [Example 750], the activation at 10 µM came out at 27%. On the same count and under the same terms, the figure for `Cc1cc(NC(=O)Cn2nc(C3=CCC(F)(F)CC3)ccc2=O)cc(C)n1` [Example 102] is 8%. Consider `CC1CC2(C1)CN(c1cnc3cnn(CC(=O)Nc4ccc(C#N)nc4)c3n1)C2` [Example 749], for which the activation at 10 µM was determined as 63%.

The test is the same for the next values; noted with them: HEK293, concentration for evaluation 0.3 μM; HEK293 stably expressing human Nav1.1; read-out: Nav1.1 current amplification rate (%).
On to `CN(c1cnc2cnn(CC(=O)Nc3ccc4ncncc4c3)c2n1)C1CC2(CC2)C1` [Example 848], for which the activation at 0.3 µM was 22%.

Still in this test, the particulars now being: HEK293, concentration for evaluation 1 μM; HEK293 stably expressing human Nav1.1; read-out: Nav1.1 current amplification rate (%).
On to `CC1CCN(c2ncc3cnn(CC(=O)Nc4ccc(C#N)nc4)c3n2)CC1(F)F` (stereo not drawn) [Example 843], for which the activation at 1 µM stood at 171%. As to `CC1CCN(c2ncc3cnn(CC(=O)Nc4cnc(C#N)cn4)c3n2)CC1(F)F` (stereo not drawn) [Example 847], the activation at 1 µM was found to be 132%. For `CN(c1ncc2cnn(CC(=O)Nc3cnc4cccnc4c3)c2n1)C1CC2(CC2)C1` [Example 842], the activation at 1 µM is 87%. On the same count and under the same terms, to `O=C(Cn1ncc2ccc(-c3ccc(F)cc3F)nc21)Nc1ccc2ocnc2c1` [Example 884] belongs 34%.

Turning to `CN(c1ncc2cnn(CC(=O)Nc3cnc4cccnc4c3)c2n1)C1CC(C)(C)C1` [Example 844], the activation at 1 µM was 221%.

The same test, now with this note: concentration for evaluation 1 μM; HEK293 stably expressing human Nav1.1.
With `O=C(Cn1ncc2cnc(N3CCC4(CCC4)CC3)nc21)Nc1ccc2ncnn2c1` [Example 811], the “Nav1.1 current amplification rate (%)” value was determined as 23%. With `CC1CCN(c2ccc3cnn(CC(=O)Nc4ccc5cncnc5c4)c3n2)CC1` [Example 877], the “Nav1.1 current amplification rate (%)” value was 263%.

Regarding `N#Cc1ccc(NC(=O)Cn2ncc3cnc(N4CCC5(CC5)C(F)(F)C4)nc32)cn1` [Example 823], the “Nav1.1 current amplification rate (%)” value was determined as 226%.

The values above are taken from US20230109839A1, “THERAPEUTIC AGENT FOR TAUOPATHIES” (SUMITOMO PHARMA CO., LTD., priority 2020, published 2023).
